According to patent US11498899B2, “Nitrone herbicides” (FMC Corporation, priority 2016, dated 2022):

Key:
[1] = system: barnyardgrass (Echinochloa crus-galli); test: Test A preemergence, visual injury rating 0-100 (0 no effect, 100 complete control); format: in vivo; conditions: for Barnyardgrass plant response rating: 31 g ai/ha, 0 to 100 scale (0 no effect, 100 complete control), approx. 10 days; for Barnyardgrass plant response rating (0 to 100 scale): 125 g ai/ha
rice (Oryza sativa) = test: Test B flooded paddy test, visual rating 0-100 (0 no effect, 100 complete control); conditions: Flood, 250 g ai/ha, applied to paddy water, rated after 13 to 15 days
[2] = system: ducksalad (Heteranthera limosa); test: Test B flooded paddy test, visual rating 0-100; conditions: Flood, 250 g ai/ha, applied to paddy water, rated after 13 to 15 days
[3] = system: pigweed (Amaranthus retroflexus); test: Test A preemergence, visual injury rating 0-100; format: in vivo; conditions: for Pigweed plant response rating: 31 g ai/ha, 0 to 100 scale (0 no effect, 100 complete control), approx. 10 days; for Pigweed plant response rating (0 to 100 scale): 125 g ai/ha
[4] = system: foxtail, giant (giant foxtail, Setaria faberii); test: Test A preemergence, visual injury rating 0-100; format: in vivo; conditions: for Foxtail, Giant plant response rating: 31 g ai/ha, 0 to 100 scale (0 no effect, 100 complete control), approx. 10 days; for Foxtail, Giant plant response rating (0 to 100 scale): 125 g ai/ha
[5] = system: ragweed (common ragweed, Ambrosia elatior); test: Test A preemergence, visual injury rating 0-100; format: in vivo; conditions: for Ragweed plant response rating: 31 g ai/ha, 0 to 100 scale (0 no effect, 100 complete control), approx. 10 days; for Ragweed plant response rating (0 to 100 scale): 125 g ai/ha
[6] = system: ryegrass, Italian (Italian ryegrass, Lolium multiflorum); test: Test A preemergence, visual injury rating 0-100; format: in vivo; conditions: for Ryegrass, Italian plant response rating: 31 g ai/ha, 0 to 100 scale (0 no effect, 100 complete control), approx. 10 days; for Ryegrass, Italian plant response rating (0 to 100 scale): 125 g ai/ha
kochia (Kochia scoparia) [7] = test: Test A preemergence, visual injury rating 0-100; format: in vivo; conditions: for Kochia plant response rating: 31 g ai/ha, 0 to 100 scale (0 no effect, 100 complete control), approx. 10 days; for Kochia plant response rating (0 to 100 scale): 125 g ai/ha
corn (Zea mays) = test: Test A postemergence, visual injury rating 0-100; format: in vivo; conditions: 0 to 100 scale
[8] = system: pigweed (Amaranthus retroflexus); test: Test A postemergence, visual injury rating 0-100; format: in vivo; conditions: 0 to 100 scale
[9] = system: foxtail, giant (giant foxtail, Setaria faberii); test: Test A postemergence, visual injury rating 0-100; format: in vivo; conditions: 0 to 100 scale
[10] = system: ragweed (common ragweed, Ambrosia elatior); test: Test A postemergence, visual injury rating 0-100; format: in vivo; conditions: 0 to 100 scale
[11] = system: ryegrass, Italian (Italian ryegrass, Lolium multiflorum); test: Test A postemergence, visual injury rating 0-100; format: in vivo; conditions: 0 to 100 scale
[12] = system: blackgrass (Alopecurus myosuroides); test: Test A postemergence, visual injury rating 0-100; format: in vivo; conditions: 0 to 100 scale
[13] = system: barnyardgrass (Echinochloa crus-galli); test: Test A postemergence, visual injury rating 0-100; format: in vivo; conditions: 0 to 100 scale
kochia (Kochia scoparia) [14] = test: Test A postemergence, visual injury rating 0-100; format: in vivo; conditions: 0 to 100 scale
[15] = system: galium (catchweed bedstraw, Galium aparine); test: Test A postemergence, visual injury rating 0-100; format: in vivo; conditions: 0 to 100 scale
[16] = system: wheat (Triticum aestivum); test: Test A postemergence, visual injury rating 0-100; format: in vivo; conditions: 0 to 100 scale
[17] = system: barnyardgrass (Echinochloa crus-galli); test: Test B flooded paddy test, visual rating 0-100; conditions: Flood, 250 g ai/ha, applied to paddy water, rated after 13 to 15 days

SMILES | Barnyardgrass plant response rating [1] | Barnyardgrass plant response rating (0 to 100 scale) [1] | Rice plant response rating (0 to 100 scale) (rice (Oryza sativa)) | Ducksalad plant response rating (0 to 100 scale) [2] | Pigweed plant response rating [3] | Pigweed plant response rating (0 to 100 scale) [3] | Foxtail, Giant plant response rating [4] | Foxtail, Giant plant response rating (0 to 100 scale) [4] | Ragweed plant response rating [5] | Ragweed plant response rating (0 to 100 scale) [5] | Ryegrass, Italian plant response rating [6] | Ryegrass, Italian plant response rating (0 to 100 scale) [6] | Kochia plant response rating (kochia (Kochia scoparia) [7]) | Kochia plant response rating (0 to 100 scale) (kochia (Kochia scoparia) [7]) | Corn plant response rating (corn (Zea mays); 31 g ai/ha) | Corn plant response rating (corn (Zea mays); 125 g ai/ha) | Pigweed plant response rating ([8]; 31 g ai/ha) | Pigweed plant response rating ([8]; 125 g ai/ha) | Foxtail, Giant plant response rating ([9]; 31 g ai/ha) | Foxtail, Giant plant response rating ([9]; 125 g ai/ha) | other results
CC1=[N+]([O-])[C@@H](C(=O)Nc2cccc(F)c2F)[C@H](c2cccc(OC(C)C)c2)C1 [Compound 55] | 90 | 90 | 0 | 100 | 0 | 0 | 70 | 90 | 0 | 0 | 0 | 80 | 0 | 0 | 0 | 0 | 0 | 0 | 10 | 80 | Ragweed plant response rating ([10]; 31 g ai/ha): 0; Ragweed plant response rating ([10]; 125 g ai/ha): 0; Ryegrass, Italian plant response rating ([11]; 31 g ai/ha): 50; Ryegrass, Italian plant response rating ([11]; 125 g ai/ha): 70; Blackgrass plant response rating ([12]; 31 g ai/ha): 0; Blackgrass plant response rating ([12]; 125 g ai/ha): 80; Barnyardgrass plant response rating ([13]; 31 g ai/ha): 20; Barnyardgrass plant response rating ([13]; 125 g ai/ha): 60; Kochia plant response rating (kochia (Kochia scoparia) [14]; 31 g ai/ha): 0; Kochia plant response rating (kochia (Kochia scoparia) [14]; 125 g ai/ha): 0; Galium plant response rating ([15]; 31 g ai/ha): 0; Galium plant response rating ([15]; 125 g ai/ha): 30; Wheat plant response rating ([16]; 31 g ai/ha): 0; Wheat plant response rating ([16]; 125 g ai/ha): 30; Barnyardgrass plant response rating (0 to 100 scale) [17]: 70
CC1=[N+]([O-])[C@@H](C(=O)Nc2cccc(F)c2F)[C@H](c2cccc(OC(C)(C)C)c2)C1 [Compound 69] | 90 | 90 | 0 | 95 | 0 | 0 | 90 | 100 | 0 | 0 | 20 | 80 | 0 | 0 | 0 | 0 | 0 | 20 | 20 | 90 | Ragweed plant response rating ([10]; 31 g ai/ha): 0; Ragweed plant response rating ([10]; 125 g ai/ha): 20; Ryegrass, Italian plant response rating ([11]; 31 g ai/ha): 30; Ryegrass, Italian plant response rating ([11]; 125 g ai/ha): 70; Blackgrass plant response rating ([12]; 31 g ai/ha): 10; Blackgrass plant response rating ([12]; 125 g ai/ha): 70; Barnyardgrass plant response rating ([13]; 31 g ai/ha): 30; Barnyardgrass plant response rating ([13]; 125 g ai/ha): 70; Kochia plant response rating (kochia (Kochia scoparia) [14]; 31 g ai/ha): 0; Kochia plant response rating (kochia (Kochia scoparia) [14]; 125 g ai/ha): 0; Galium plant response rating ([15]; 31 g ai/ha): 20; Galium plant response rating ([15]; 125 g ai/ha): 40; Wheat plant response rating ([16]; 31 g ai/ha): 0; Wheat plant response rating ([16]; 125 g ai/ha): 0; Barnyardgrass plant response rating (0 to 100 scale) [17]: 90
